Experimental data reported in the SangsterLogP compilation.

How the values were obtained:
[1] = method code SF-AS, from DOI: 10.1021/jm00395a009, PMID: 3681892; details: pH 7.4
[2] = method code SF-HPLC, from Thijssen, W. (1981). The relationship between Log P, Rm, log k' and the constants pi and f: a study on penicillins. Eur J Med Chem, 16(5)449-452.
[3] = method code SF, from PMID: 8999431; details: pH 7.4
[4] = method code SF-AS, from PMID: 872227; details: pH 7.2
[5] = not given; remark: listed apart in the source
[6] = method code SF-AS, from DOI: 10.1002/ardp.19853180604, PMID: 4026543; details: pH 7.4
[7] = not given; remark: listed apart in the source
[8] = not given; remark: listed apart in the source
[9] = not given; remark: listed apart in the source
[10] = not given; remark: listed apart in the source
[11] = method code SF-HPLC, from DOI: 10.1248/cpb.47.1081, PMID: 10478463; details: pH 6.5
[12] = not given; remark: listed apart in the source
[13] = not given; remark: listed apart in the source
[14] = method code SF-AS, from DOI: 10.3109/03639048709068705
[15] = method code SF-HPLC, from DOI: 10.1016/s0021-9673(99)01336-9, PMID: 10757301
[16] = from Jayashree, Bs.; Sahu, A.; MM, S.; Venugopala, K. (2006). Synthesis, characterization and determination of partition coefficient of some triazolo thiadiazinyl chlorocoumarin derivatives for their …; details: pH 7.4
[17] = method code SF-RC, from DOI: 10.1016/0361-9230(85)90153-4, PMID: 2413968
[18] = not given; remark: listed apart in the source
[19] = method code SF-AS, from DOI: 10.1016/j.bmc.2004.10.037, PMID: 15653345
[20] = not given; remark: listed apart in the source
[21] = not given; remark: listed apart in the source
[22] = not given; remark: listed apart in the source
[23] = not given; remark: listed apart in the source

In the case of `O=c1c(F)cn(C2CCCO2)c(=O)n1Cc1ccccc1` (stereo not given), the logD [1] is reported as 1.38.

In the case of `COc1ccc2c(c1)OC[C@]1(O)c3cc4c(cc3O[C@H]21)OCO4`, the logP is reported as 2.58.

Molecule `Cc1onc(-c2ccccc2Cl)c1C(=O)NC1C(=O)N2C1S(=O)C(C)(C)C2C(=O)O` (stereo not given) has a logP [2] of 2.

Work on `CCn1cc(C(=O)NC(C)C(=O)OC)c(=O)c2ccc(C)nc21` (stereo not given) yielded a logD [3] of 2.47.

Work on `CCCCOc1ccc(NC(=O)OCCN2CCOCC2)c(C)c1` yielded a logD [4] of 2.82.

`CC(C)N(CCC(C(N)=O)c1ccc(-c2ccccc2)cc1)C(C)C` (stereo not given) showed a logP [5] of 3.66.

Molecule `Cc1nc2ccccc2c(=O)n1N=C1SCC(=O)N1c1ccc(Cl)cc1` has a logD [6] of -1.6.

With `Cc1ccccc1OCC(O)CNCC(O)COc1ccccc1C` (stereo not given) the logP [7] was 3.67.

With `COC(=O)C1=C(C)NC(C)=C(C(=O)OC(C)C)[C@H]1c1cccc2nonc12` the logP [8] was 3.75.

In the case of `CCOC(=O)CNC(=O)c1cn(CC)c2nc(C)ccc2c1=O`, the logD [3] is reported as 2.07.

For `CCN(CC)CCC(=O)NC1c2ccccc2Oc2c(C)cccc21` (stereo not given), the logP [9] was 3.55.

`CC1(C)S[C@@H]2[C@H](NC(=O)C(C(=O)Oc3ccccc3)c3ccccc3)C(=O)N2[C@H]1C(=O)O` (stereo not given in full) gave a logP [10] of 3.14.

`CC(=O)OC[C@H]1O[C@@H](n2ccc(=O)[nH]c2=O)[C@H](OC(C)=O)[C@@H]1OC(C)=O` showed a logD [1] of -0.36.

In the case of `Cc1onc(-c2c(F)cccc2Cl)c1C(=O)N[C@@H]1C(=O)N2[C@@H]1SC(C)(C)[C@@H]2C(=O)O`, the logP [10] is reported as 2.58.

For `COc1ccc([C@@H]2COc3cc(O)ccc3C2)c(O)c1`, the logP was 2.44.

`CON=C(C(=O)NC1C(=O)N2C(C(=O)OC(C)OC(=O)OC(C)C)=CCSC12)c1csc(N)n1` (stereo not given) gave a logD [11] of 1.37.

`CCN(CC)C(=O)C(C#N)=Cc1cc(OC(C)=O)c(OC(C)=O)c([N+](=O)[O-])c1` showed a logP [12] of 1.23.

For `C[C@]12C=CC(=O)C=C1CC[C@@H]1[C@@H]2C(=O)C[C@@]2(C)[C@H]1CC[C@]2(O)C(=O)CO`, the logP [8] was 1.6.

In the case of `CC(=O)OC(CNC(C)C)COc1cccc2ccccc12` (stereo not given), the logP [13] is reported as 4.34.

`CCCCCC(=O)OC(CNC(C)C)COc1cccc2ccccc12` (stereo not given) gave a logP [14] of 6.85.

In the case of `CON=C(C(=O)NC1C(=O)N2C(C(=O)OC(C)OC(=O)OC3CCCCC3)=CCSC12)c1csc(N)n1` (stereo not given), the logD [11] is reported as 2.52.

Molecule `CCCC(=O)Oc1cc(C=C(C#N)C(=O)N(CC)CC)cc([N+](=O)[O-])c1OC(=O)CCC` has a logP [12] of 3.15.

For `CC(=O)OCC1=C(C(=O)O)N2C(=O)C(NC(=O)Cc3cccs3)C2SC1` (stereo not given), the logP [15] was 0.08.

`O=c1oc2ccc(Cl)cc2cc1C1=Nn2c(COc3ccc(Cl)cc3Cl)nnc2SC1` showed a logD [16] of 1.4.

`CSCC[C@H](NC(=O)[C@H](CC(C)C)NC(=O)CNC(=O)[C@H](Cc1ccccc1)NC(=O)[C@H](Cc1ccccc1)NC(=O)[C@H](CCC(N)=O)NC(=O)[C@H](CCC(N)=O)NC(=O)[C@@H]1CCCN1C(=O)[C@H](CCCCN)NC(=O)[C@@H]1CCCN1C(=O)[C@@H](N)CCCN=C(N)N)C(N)=O` gave a logP [17] of -0.56.

`CC1(C)S[C@@H]2[C@H](NC(=O)[C@@H](c3ccccc3)S(=O)(=O)O)C(=O)N2[C@H]1C(=O)O` showed a logP [10] of 0.59.

In the case of `CC(C)N(CCC(CCC1CCCCC1)(C(N)=O)c1ccccc1Cl)C(C)C` (stereo not given), the logP [5] is reported as 4.23.

`CCOCn1c(Cc2cc(C)cc(C)c2)c(C(C)C)c(=O)[nH]c1=O` showed a logP [18] of 3.46.

With `CCOC(=O)N1CCN(Cc2ccc(O)c3ncccc23)CC1` the logP [19] was 1.57.

`Cc1cn(C2CC(N=[N+]=[N-])C(COC(=O)C(=O)NC(C(=O)O)C(C)C)O2)c(=O)[nH]c1=O` (stereo not given) showed a logP [20] of 0.68.

`CCN(CC)C(=O)C(C#N)=Cc1cc(OC(=O)c2ccccc2)c(OC(=O)c2ccccc2)c([N+](=O)[O-])c1` showed a logP [12] of 3.44.

For `CCCCNc1cc(C(=O)O)cc(S(N)(=O)=O)c1Oc1ccccc1`, the logP [8] was 3.21.

In the case of `CC(=O)N(C[C@@H](O)CO)c1c(I)c(C(=O)NC(CO)CO)c(I)c(N(C(C)=O)[C@@H](O)CO)c1I`, the logP [21] is reported as -2.64.

`CON=C(C(=O)NC1C(=O)N2C(C(=O)OC(C)OC(C)=O)=CCSC12)c1csc(N)n1` (stereo not given) gave a logD [11] of 0.46.

`CC(C)N(CCC(C(N)=O)c1ccccc1Cl)C(C)C` (stereo not given) showed a logP [5] of 2.83.

`COCC1OC(n2ccc(=O)n(Cc3ccccc3)c2=O)C(OC)C1OC` (stereo not given) showed a logD [1] of 1.81.

With `Cc1onc(-c2c(Cl)ccc(O)c2F)c1C(=O)NC1SC2N(C1=O)C(C(=O)O)C2(C)C` (stereo not given) the logP [2] was 2.23.

In the case of `Nc1ccc(-c2ccc3cc(OCCF)ccc3n2)cc1`, the logP [22] is reported as 2.4.

Work on `COc1cc(C=Cc2cccnc2)ccc1C=Cc1cccnc1` yielded a logP [23] of 4.32.

With `CCc1c(Sc2ccccc2)n(COCc2ccccc2)c(S)nc1=O` the logP [18] was 3.44.

With `COc1ccc(CCNCC(O)COc2cccc(C)c2)cc1OC` (stereo not given) the logP [7] was 3.

With `CC(=O)N(CCO)c1c(I)c(C(=O)NC(CO)CO)c(I)c(C(=O)NC(CO)CO)c1I` the logP [21] was -2.49.

`C#CCN1CCN(Cc2ccc(O)c3ncccc23)CC1` gave a logP [19] of 1.79.

Molecule `CCCCCCOc1ccc(NC(=O)OCCN2CCOCC2)c(C)c1` has a logD [4] of 3.9.

`Cc1nc2ccccc2c(=O)n1N=C1SCC(=O)N1c1ccc(Br)cc1` showed a logD [6] of -1.26.

In the case of `Cc1cn(C2CC(N=[N+]=[N-])C(COC(=O)C(=O)N3CCCC3C(=O)O)O2)c(=O)[nH]c1=O` (stereo not given), the logP [20] is reported as 0.16.

For `NC(=O)[C@@H]1CCCN1C(=O)[C@H](Cc1cnc[nH]1)NC(=O)[C@@H]1CCC(=O)N1`, the logP [17] was -1.42.

Molecule `CCn1cc(C(=O)NC(CC(C)C)C(=O)OC)c(=O)c2ccc(C)nc21` (stereo not given) has a logD [3] of 3.15.

`Cc1cccc2c1Sc1ccccc1C2NC(=O)CCN(C)C` (stereo not given) showed a logP [9] of 3.06.

With `Cc1nc2ccccc2c(=O)n1N=C1SCC(=O)N1c1ccccc1` the logD [6] was -1.06.

For `O=c1oc2ccc(Cl)cc2cc1C1=Nn2c(nnc2-c2ccccc2O)SC1`, the logD [16] was 0.36.

With `CC(C)NCC(COc1cccc2ccccc12)OC(=O)C(C)(C)C` (stereo not given) the logP [14] was 6.44.

`CN(CCF)c1ccc2cc(CC=C(C#N)C#N)ccc2c1` showed a logP [22] of 3.71.

`O=[N+]([O-])c1ccc(OCC(O)CNCC(O)COc2ccccc2)cc1` (stereo not given) showed a logP [7] of 2.62.

`CC(=O)N(CC(O)CO)c1c(I)c(C(=O)NCC(O)CO)c(I)c(C(=O)NCC(O)CO)c1I` (stereo not given) gave a logP [21] of -3.08.

For `CCOCn1c(Cc2ccccc2)c(CC)c(=O)[nH]c1=O`, the logP [18] was 0.74.

`CC(=O)OCC1=C(C(=O)O)N2C(=O)[C@@H](NC(=O)CSc3ccncc3)[C@H]2SC1` gave a logP [15] of -0.15.

For `CC=CC(=O)OC(CNC(C)C)COc1cccc2ccccc12` (stereo not given), the logP [13] was 3.78.

Molecule `CC1(C)C=Cc2c(ccc3c2O[C@H]2c4ccc(O)cc4OC[C@@H]32)O1` (relative stereo) has a logP of 3.58.

`CNc1ccc(-c2ccc3cc(OCC(O)CF)ccc3n2)cc1` (stereo not given) gave a logP [22] of 2.32.

For `C#CCNC(Cc1ccc(O)c2ncccc12)C(=O)OCC` (stereo not given), the logP [19] was 0.71.

Work on `CCCCCOc1ccc(NC(=O)OCCN2CCOCC2)c(C)c1` yielded a logD [4] of 3.38.

With `CCN(CC)CCC(=O)NC1c2ccccc2Sc2c(C)cccc21` (stereo not given) the logP [9] was 4.1.

`Cc1onc(-c2c(Cl)cccc2Cl)c1C(=O)NC1C(=O)N2C1S(=O)C(C)(C)C2C(=O)O` (stereo not given) showed a logP [2] of 2.57.

`CCNC(=O)[C@@H]1CCCN1C(=O)[C@H](CCCN=C(N)N)NC(=O)[C@H](CC(C)C)NC(=O)[C@@H](COC(C)(C)C)NC(=O)[C@H](Cc1ccc(O)cc1)NC(=O)[C@H](CO)NC(=O)[C@H](Cc1c[nH]c2ccccc12)NC(=O)[C@H](Cc1cnc[nH]1)NC(=O)[C@@H]1CCC(=O)N1` gave a logP [17] of -1.35.

In the case of `CO/N=C(\C(=O)N[C@@H]1C(=O)N2C(C(=O)O)=C(COC(C)=O)CS[C@H]12)c1csc(N)n1`, the logP [15] is reported as -0.13.

For `Cc1cn(C2CC(N=[N+]=[N-])C(COC(=O)C(=O)NC(CC(C)C)C(=O)O)O2)c(=O)[nH]c1=O` (stereo not given), the logP [20] was 1.12.

In the case of `CCC(=O)OC(CNC(C)C)COc1cccc2ccccc12` (stereo not given), the logP [14] is reported as 4.99.

In the case of `O=c1oc2ccc(Cl)cc2cc1C1=Nn2c(nnc2-c2cccc(Br)c2)SC1`, the logD [16] is reported as 1.53.

For `CC(C)NCC(COc1cccc2ccccc12)OC(=O)c1ccc([N+](=O)[O-])cc1` (stereo not given), the logP [13] was 5.97.
